In patent US8057810B2, “Peptide substance revealing an immunogeroprotective effect, pharmaceutical composition on its base and the method of its application” (priority 2006, dated 2011):
Marks after values point to notes of the source that are not given here. Residues, ends and D or L forms follow the SMILES beside them.

Columns and labels:
[1] = tested on: lymphocytes taken from very old patients; assay: Chromatin in blood lymphocytes of old patients in vitro; format: cell-based, human; settings: 0.01 μg/ml; lymphocytes of patients aged 75-88
Procedure: Peptide H-Glu-Asp-Pro-OH effect on the system of chromatin domains was studied in old people lymphocytes cultures, in particular on chromatin reactivation such as in deheterochromatinization of heterocliromatin satellite filaments (activity of synthetic processes in ribosomal genes, total heterochromatin, structural heterochromatin (changeability of C-blocks of the 1, 9 and 16 chromosomes) and optional heterochromatin.
The studies were conducted on the chromosomes of 150 PHA-stimulated and 40 PHA-non-stimulated lymphocyte cultures, obtained from 95 healthy patients aged 75-88 (control—25 donors aged 20-40). There were studied 2 cell cultures from each patient —one intact and one with peptide H-Glu-Asp-Pro-OH added into the cultural medium up to the ultimate concentration of 0.01 μg/ml. To study each parameter there were analyzed from 30 up to 50 metaphases of both intact lymphocyte cultures and those with added peptide (10 cultures of each).
To estimate ribosomal genes activity in intact cultures and under the effect of the peptide there were used methods of Ag-banding and of the registration of nucleolar organizers regions (NOR) of acrocentric chromosomes. Changeability of the activity level was estimated comparing two binomial totals.
Polymorphism of structural C-heterochromatin of the 1, 9 and 16 chromosomes was estimated. For comparative analysis of C-stained chromosomes of intact cultures and those treated with the peptide there was used a standard system of classification, according to which the size of the 1, 9, 16 chromosomes C-segments were compared to the chromosome 16 short leg and the results were divided into 5 categories—a, b, c, d, e. The changeability of facultative heterochromatin was estimated according to the frequency of sister chromatid exchange (SCE) in intact and peptide-treated lymphocytes.

[2] = tested on: old rats' spleen explants; assay: Development of spleen explants taken from old rats (area index); format: cell-based; settings: 10 ng/ml
Procedure: The experiments were staged on 35 fragments of the thymus and 45 fragments of the spleen taken from rats aged 24 months. Nutritional medium for cultivation consisted of 35% Eagle's solution, 25% calf fetal serum, 35% Hanx solution, 5% chicken embryonic extract, with the addition of glucose (0.6%), insulin (0.5 U/ml), penicillin (100 U/ml), glutamin (2 mM). […]
Peptide H-Glu-Asp-Pro-OH was added into the experimental medium in concentrations of 0.5, 10 and 100 ng/ml.
Area index (AI)—the ratio of total explant area including the growth zone to the initial area of thymus or spleen fragment was used as a criterion for measuring the biological activity. AI values were expressed in percent, control AI value being taken as 100%.

[3] = tested on: thymus epithelium cells, line VTEC2.H/S; assay: Proliferation of thymus epithelium cells in ageing cultures (3H-thymidin); format: cell-based, human; design: unit not given here
Procedure: The study was staged in vitro in the culture of thymus epithelium cells, which were represented by cells of suspension line VTEC2.H/S, obtained by transforming thymus epithelial cells of human embryo thymus with the material containing SV40 virus, and subsequent cloning of transformed cells.
Peptide H-Glu-Asp-Pro-OH was introduced into cell cultures in successive dilutions to ultimate concentrations of 2, 20 and 200 ng/ml. Proliferation of thymus epithelium cells subjected to 1, 4 and 7 passages was estimated using a radiometrical method, judging by the content of ^3H-thymidin.

[4] = tested on: elderly and old patients with age-related immune status decline; assay: Clinical application in elderly and old patients exposed to small doses of ionizing irradiation; format: in vivo, human
Procedure: The efficacy of pharmaceutical composition, containing an effective amount of peptide H-Glu-Asp-Pro-OH as an active base, was studied in elderly and old patients, exposed to long-term ionizing irradiation in small doses.
The main group consisted of 38 elderly patients (18 men, 20 women), who were divided into 3 groups according to the intensity of immune status changes. […] Elderly and old patients with age-related decrease of the immune functions were injected with the pharmaceutical composition containing peptide H-Glu-Asp-Pro-OH in the dose of 10.0 μg in 1 ml of sterile 0.9% NaCl solution intramuscularly, daily, once a day for 10 days. 32 control group patients (14 men, 18 women) received only conventional treatment. The patients of both groups were from 62 to 83 years old. The efficacy of the pharmaceutical composition containing peptide H-Glu-Asp-Pro-OH was estimated judging by the dynamics of the patients' complaints and a set of objective indices, such as common blood and urine tests, immunologic study of peripheral blood (the number of T- and B-lymphocytes was estimated using the immunofluorescence method with monoclonal antibodies to CD3, CD4, CD8, CD20 differentiation lymphocytes antigens; content of immunoglobulins of different classes—using Mancini's method of radial immunodiffusion in the gel, T-lymphocytes functional activity—in lymphocyte migration inhibition reaction (LMIR) with Con A.

[5] = tested on: peritoneal macrophages; assay: Production of lymphocyte activation factors (LAF) by peritoneal macrophages; format: cell-based, mice
Source text: The peculiarities of LAF production by peritoneal macrophages in young and ageing mice, as well as the influence of peptide H-Glu-Asp-Pro-OH on this index were studied. LAF activity of the macrophages was estimated judging by their ability to exert a comitogenic effect on the proliferation of thymocytes, stimulated by suboptimal lectin doses in vitro.
The same tendency to the change in LAF production by macrophages was observed under the effect of peptide H-Glu-Asp-Pro-OH in young mice, but not in the whole range of studied concentrations.

[6] = patients 62-83 years, after treatment including the peptide, i.m. daily for 10 days
[7] = ageing mice 19-20 months, 0.5 to 500 ng/ml

Structure (SMILES): N[C@@H](CCC(=O)O)C(=O)N[C@@H](CC(=O)O)C(=O)N1CCC[C@H]1C(=O)O [Peptide H-Glu-Asp-Pro-OH, glutamyl-aspartyl-proline] (H-Glu-Asp-Pro-OH)
- Associated acrocentric chromosomes (per cell) [1]: 2.32 ± 0.12 per cell
- Deheterochromatinization of optional heterochromatin - SCE (per cell) [1]: 8.4 ± 0.5 per cell
- Structural heterochromatin (C-blocks), chromosome 1 [1]: Deheterochro-
- Structural heterochromatin (C-blocks), chromosome 9 [1]: Deheterochro-
- Structural heterochromatin (C-blocks), chromosome 16 [1]: Stable
- Total heterochromatin [1]: Deheterochro-
- Stimulating effect on spleen explants at longer term ([2]; 7th day): still visible, although it was less pronounced
- Area index (AI) in spleen explants, increase ([2]; rats aged 24 months): 28%
- Proliferation of thymus epithelial cells (3H-thymidin content) ([3]; 2 ng/ml, 1st passage): 1480 ± 89
- Proliferation of thymus epithelial cells (3H-thymidin content) ([3]; 2 ng/ml, 4th passage): 730 ± 54
- Proliferation of thymus epithelial cells (3H-thymidin content) ([3]; 2 ng/ml, 7th passage): 705 ± 46
- Proliferation of thymus epithelial cells (3H-thymidin content) ([3]; 20 ng/ml, 1st passage): 1585 ± 95
- Proliferation of thymus epithelial cells (3H-thymidin content) ([3]; 20 ng/ml, 4th passage): 680 ± 48
- Proliferation of thymus epithelial cells (3H-thymidin content) ([3]; 20 ng/ml, 7th passage): 680 ± 41
- Proliferation of thymus epithelial cells (3H-thymidin content) ([3]; 200 ng/ml, 1st passage): 1530 ± 91
- Proliferation of thymus epithelial cells (3H-thymidin content) ([3]; 200 ng/ml, 4th passage): 760 ± 58
- Proliferation of thymus epithelial cells (3H-thymidin content) ([3]; 200 ng/ml, 7th passage): 795 ± 49
- Patients in whom disordered immune system indices were normalized ([4]; composition in different doses with symptomatic means, 56% in the control group): 82%
- Side effects in patients ([4]; elderly and old patients, composition in different doses): does not exert any side effects, complications or drug addiction
- General state and asthenic syndrome after the treatment course ([4]; elderly people in the three main groups): significant improvement of the general state and reduction of the asthenic syndrome
- CD3+, % [4, 6]: 55.7 ± 2.6 %
- CD3+, ×10^9/l [4, 6]: 1.86 ± 0.05 ×10^9/l
- CD4+, % [4, 6]: 34.6 ± 2.0 %
- CD4+, ×10^9/l [4, 6]: 0.67 ± 0.09 ×10^9/l
- CD4+/CD8+ [4, 6]: 1.4*#
- CD8+, % [4, 6]: 24.9 ± 1.8%
- CD8+, ×10^9/l [4, 6]: 0.46 ± 0.07 ×10^9/l
- CD20+, % [4, 6]: 12.0 ± 0.7%
- CD20+, ×10^9/l [4, 6]: 0.20 ± 0.01 ×10^9/l
- IgA [4, 6]: 2.1 ± 0.3 g/L
- IgG [4, 6]: 14.9 ± 1.7 g/L
- IgM [4, 6]: 1.64 ± 0.06 g/L
- LMIR (lymphocyte migration inhibition reaction with Con A) [4, 6]: 70.4 ± 4.9 %
- Leukocytes [4, 6]: 5.6 ± 0.1 ×10^9/l
- Lymphocytes, % [4, 6]: 35.1 ± 2.1%
- Lymphocytes, ×10^9/l [4, 6]: 1.87 ± 0.05 ×10^9/l
- LAF production by non-stimulated peritoneal macrophages [5, 7]: induces the production of LAF
- LAF production under the effect of LPS [5, 7]: increases the production of LAF
- Change in LAF production by macrophages ([5]; young mice 2 months, not in the whole range of studied concentrations): same tendency
